Like-named read-outs stand apart in the source and are kept apart here. Values belong to the molecule of their own block, whether it stands above or below them. Non-standard residues stand in square brackets, D forms with d. Residues, ends and D or L forms follow the SMILES beside them. *: point of attachment. Desaminotyrosyl = O=C(CCc1ccc(O)cc1)*; Agmatine = N=C(N)NCCCCN*; Nle = CCCC[C@H](N)C(=O)O; Orn = NCCC[C@H](N)C(=O)O; Abu = CC[C@H](N)C(=O)O
Legend:
rat pituitary cells = test: GH release in superfused rat pituitary cell system; format: cell-based; details: 1 nM, 3-min pulse; for GH Response (ng/ml) Average: average of runs; for GH Response (ng/ml) 1: run 1; for GH Response (ng/ml) 2: run 2
Protocol: Growth hormone releasing activity. Growth hormone releasing was assayed by using a superfused rat pituitary cell system as described in S. Vigh and A. V. Schally, Peptides 5, Suppl: 241-347, 1984. The new synthetic peptide analog of hGHRH P20356 and JI-38 (as control) were administered for 3 minutes (1 mL perfusate) at 1 nM concentration as shown below. Fractions of 1 ml are collected and the GH content in each was determined by ELISA.
Pituitary cells from 2 male rats were used for each channel of the superfusion system. The cells were exposed to 3-min pulses of the new GHRH agonists or to JI-38 as standard every 30 min. Outflowing samples of each channel (1 ml) were collected every 3 min, and GH levels were determined by ELISA.

[1] = target: T1, GHRH receptor (human pituitary membrane homogenates) (Homo sapiens, UniProt Q02643); test: GHRH receptor binding, ligand competition with 125I-labeled JV-1-42 (Table 5)
T1 sequence (Q02643 23-423): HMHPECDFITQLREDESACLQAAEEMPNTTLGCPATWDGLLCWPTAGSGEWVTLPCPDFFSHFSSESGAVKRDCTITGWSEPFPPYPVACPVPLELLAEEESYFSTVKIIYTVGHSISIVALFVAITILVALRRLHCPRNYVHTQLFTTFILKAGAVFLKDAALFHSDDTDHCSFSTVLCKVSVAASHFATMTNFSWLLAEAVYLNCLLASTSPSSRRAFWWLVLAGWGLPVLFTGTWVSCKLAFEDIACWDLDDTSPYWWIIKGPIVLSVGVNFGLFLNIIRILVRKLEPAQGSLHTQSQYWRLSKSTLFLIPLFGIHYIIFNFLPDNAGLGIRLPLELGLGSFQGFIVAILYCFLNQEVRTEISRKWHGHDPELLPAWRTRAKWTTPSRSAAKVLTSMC

[2] = target: T1, GHRH receptor (human pituitary membrane homogenates); test: GHRH receptor binding, ligand competition with 125I-labeled [His1,Nle27]hGHRH(1-32)NH2 (Table 6)
[3] = target: T1, GHRH receptor (human pituitary membrane homogenates); test: GHRH receptor binding, ligand competition with 125I-labeled JV-1-42 (Table 7); parameters: Normal human pituitaries were purchased from the National Hormone and Peptide Program; tissue National Hormone and Peptide Program (A. F. Parlow, Harbor-UCLA Medical Center, Torrance, Calif.); host or cells: normal human pituitary, membrane fraction / homogenate; details: JI-38 = 1
[4] = target: T2, GHRH receptor in human pituitary membrane homogenates (human, UniProt Q02643); test: ligand competition, 125I-JV-1-42 displaced, human pituitary membranes
T2 sequence: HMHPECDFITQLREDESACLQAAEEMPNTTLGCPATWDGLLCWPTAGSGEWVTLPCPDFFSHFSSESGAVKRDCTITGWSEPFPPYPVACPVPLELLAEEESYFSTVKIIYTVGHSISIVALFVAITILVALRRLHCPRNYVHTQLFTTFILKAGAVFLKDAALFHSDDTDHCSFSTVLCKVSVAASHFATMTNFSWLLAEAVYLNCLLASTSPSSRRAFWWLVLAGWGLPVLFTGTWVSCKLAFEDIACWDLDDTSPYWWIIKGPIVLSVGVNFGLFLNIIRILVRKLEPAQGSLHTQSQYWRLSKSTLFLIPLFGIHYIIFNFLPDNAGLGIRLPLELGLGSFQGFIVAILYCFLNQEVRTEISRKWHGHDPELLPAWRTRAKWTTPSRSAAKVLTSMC

[5] = target: T2, GHRH receptor in human pituitary …; test: as above; remark: listed apart in the source
[6] = fraction 1 (P-20356) / 21 (JI-38)
[7] = fraction 2 (P-20356) / 22 (JI-38)
[8] = fraction 3 (P-20356) / 23 (JI-38)
[9] = fraction 4 (P-20356) / 24 (JI-38)
[10] = fraction 5 (P-20356) / 25 (JI-38)

Molecule: CCCC[C@H](NC(=O)[C@@H](NC(=O)[C@H](CC(=O)O)NC(=O)[C@H](CCC(N)=O)NC(=O)[C@H](CC(C)C)NC(=O)[C@H](CC(C)C)NC(=O)[C@H](CCCN)NC(=O)[C@H](CCCNC(=N)N)NC(=O)[C@H](C)NC(=O)[C@H](CO)NC(=O)[C@H](CC(C)C)NC(=O)[C@H](CCC(N)=O)NC(=O)[C@H](CC)NC(=O)[C@H](CC(C)C)NC(=O)[C@@H](NC(=O)[C@H](CCCN)NC(=O)[C@H](CCCNC(=N)N)NC(=O)[C@H](Cc1ccc(O)cc1)NC(=O)[C@H](CO)NC(=O)[C@H](CCC(N)=O)NC(=O)[C@@H](NC(=O)[C@H](Cc1ccccc1)NC(=O)[C@@H](NC(=O)[C@H](C)NC(=O)[C@H](CC(=O)O)NC(=O)[C@H](C)NC(=O)CCc1ccc(O)cc1)[C@@H](C)CC)[C@@H](C)O)C(C)C)[C@@H](C)CC)C(=O)N[C@@H](CC(=O)O)C(=O)NCCCCNC(=N)N [JI-38, reference compound] (Desaminotyrosyl-ADAIFTQSYR[Orn]VL[Abu]QLSAR[Orn]LLQDI[Nle]D-Agmatine)
GH Response (ng/ml) Average (rat pituitary cells; [6]): 49.27 ng/mL
GH Response (ng/ml) Average (rat pituitary cells; [7]): 131.71 ng/mL
GH Response (ng/ml) Average (rat pituitary cells; [8]): 194.68 ng/mL
GH Response (ng/ml) Average (rat pituitary cells; [9]): 137.45 ng/mL
GH Response (ng/ml) Average (rat pituitary cells; [10]): 96.70 ng/mL
GH Response (ng/ml) 1 (rat pituitary cells; [6]): 42.46 ng/mL
GH Response (ng/ml) 1 (rat pituitary cells; [7]): 143.58 ng/mL
GH Response (ng/ml) 1 (rat pituitary cells; [8]): 222.13 ng/mL
GH Response (ng/ml) 1 (rat pituitary cells; [9]): 142.96 ng/mL
GH Response (ng/ml) 1 (rat pituitary cells; [10]): 96.34 ng/mL
GH Response (ng/ml) 2 (rat pituitary cells; [6]): 56.07 ng/mL
GH Response (ng/ml) 2 (rat pituitary cells; [7]): 119.83 ng/mL
GH Response (ng/ml) 2 (rat pituitary cells; [8]): 167.23 ng/mL
GH Response (ng/ml) 2 (rat pituitary cells; [9]): 131.93 ng/mL
GH Response (ng/ml) 2 (rat pituitary cells; [10]): 97.05 ng/mL
Relative affinitiy (Binding potency) vs GHRH ([1]; GHRH(1-29) = 1): 2.4
Relative affinitiy (Binding potency) vs JI-38 ([1]; JI-38 = 1): 1
Relative affinitiy (Binding potency) vs GHRH ([2]; GHRH(1-29) = 1): 3.03
Relative affinitiy (Binding potency) vs JI-38 ([2]; JI-38 = 1): 1
Relative affinitiy (Binding potency) vs JI-38 [3]: 1

IC50 [4]: 0.04 nM
relative affinity (binding potency) vs GHRH [4]: 102 GHRH(1-29) = 1
relative affinity (binding potency) vs JI-38 [4]: 42.7 JI-38 = 1
IC50 [5]: 0.52 nM
relative affinity (binding potency) vs JI-38 [5]: 8.37 JI-38 = 1
B1: [Dat1, D-Ala2, Gln8, Orn12, Abu15, Orn21, Nle27, Asp28, Agm29]hGHRH(1-29) (peptide)
peptide: [Desaminotyrosyl][dA]DAIFTQSYR[Orn]VL[Abu]QLSAR[Orn]LLQDI[Nle]D[Agmatine]
SMILES: CCCC[C@H](NC(=O)[C@@H](NC(=O)[C@H](CC(=O)O)NC(=O)[C@H](CCC(N)=O)NC(=O)[C@H](CC(C)C)NC(=O)[C@H](CC(C)C)NC(=O)[C@H](CCCN)NC(=O)[C@H](CCCNC(=N)N)NC(=O)[C@H](C)NC(=O)[C@H](CO)NC(=O)[C@H](CC(C)C)NC(=O)[C@H](CCC(N)=O)NC(=O)[C@H](CC)NC(=O)[C@H](CC(C)C)NC(=O)[C@@H](NC(=O)[C@H](CCCN)NC(=O)[C@H](CCCNC(=N)N)NC(=O)[C@H](Cc1ccc(O)cc1)NC(=O)[C@H](CO)NC(=O)[C@H](CCC(N)=O)NC(=O)[C@@H](NC(=O)[C@H](Cc1ccccc1)NC(=O)[C@@H](NC(=O)[C@H](C)NC(=O)[C@H](CC(=O)O)NC(=O)[C@@H](C)NC(=O)CCc1ccc(O)cc1)[C@@H](C)CC)[C@@H](C)O)C(C)C)[C@@H](C)CC)C(=O)N[C@@H](CC(=O)O)C(=O)NCCCCNC(=N)N

— patent publication US9393271B2, “GHRH agonists for islet cell transplantation and function and the treatment of diabetes” (UNIVERSITY OF MIAMI, priority 2012, dated 2016)
